Reference: ChEMBL document CHEMBL1128930, “4-cyanothiazolidides as very potent, stable inhibitors of dipeptidyl peptidase IV” (Bioorg Med Chem Lett, 1996)
pKi: −log10 of the molar value.

Tests used:
[1] = Half life period in aqueous solution; type: ADME; settings: for half-life: aqueous solution
Dipeptidyl peptidase 4 = Dipeptidyl peptidase 4 (Homo sapiens, UniProt P27487); assay: Inhibition of human Dipeptidyl peptidase IV
Chain of Dipeptidyl peptidase 4 (P27487 whole entry): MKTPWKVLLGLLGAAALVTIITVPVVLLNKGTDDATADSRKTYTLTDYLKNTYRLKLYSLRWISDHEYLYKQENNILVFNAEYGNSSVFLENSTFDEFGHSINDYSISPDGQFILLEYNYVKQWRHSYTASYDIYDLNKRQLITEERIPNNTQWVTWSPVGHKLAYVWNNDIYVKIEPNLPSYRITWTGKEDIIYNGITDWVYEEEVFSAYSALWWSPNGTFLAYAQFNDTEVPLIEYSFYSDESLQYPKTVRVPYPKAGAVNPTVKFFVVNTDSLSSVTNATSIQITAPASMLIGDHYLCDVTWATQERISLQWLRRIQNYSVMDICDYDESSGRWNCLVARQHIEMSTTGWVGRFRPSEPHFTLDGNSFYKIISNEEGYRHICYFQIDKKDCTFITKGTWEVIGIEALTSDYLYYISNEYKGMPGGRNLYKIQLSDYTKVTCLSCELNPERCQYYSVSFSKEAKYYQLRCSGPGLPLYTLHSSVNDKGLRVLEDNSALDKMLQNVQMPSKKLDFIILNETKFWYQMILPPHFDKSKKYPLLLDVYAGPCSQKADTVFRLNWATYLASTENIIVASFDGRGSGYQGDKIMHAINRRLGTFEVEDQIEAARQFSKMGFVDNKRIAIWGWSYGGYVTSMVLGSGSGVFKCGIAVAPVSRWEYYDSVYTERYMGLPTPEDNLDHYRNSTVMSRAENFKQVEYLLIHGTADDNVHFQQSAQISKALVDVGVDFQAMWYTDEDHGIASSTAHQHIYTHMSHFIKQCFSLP

half-life [1] | T1/2 ([1]; buffer) | pKi (Dipeptidyl peptidase 4) | Structure (SMILES)
48 h |  |  | CCC(C)[C@H](N)C(=O)N1CCC[C@H]1C#N (stereo partly drawn)
> 48 h |  | 5.22 | CCC(C)[C@H](N)C(=O)N1CSCCC1C#N (stereo partly drawn)

The next lines start with the compound.

Structure (SMILES) | half-life [1] | T1/2 ([1]; buffer) | pKi (Dipeptidyl peptidase 4)
CC[C@H](C)[C@H](N)C(=O)N1C[S+]([O-])C[C@H]1C#N (stereo in doubt; 9) |  | 1.5 h | 6.36
N#C[C@@H]1CSCN1C(=O)C(N)C1CCCC1 (stereo partly drawn) | 5 h |  | 9.30
CC[C@H](C)[C@H](N)C(=O)N1C[S+]([O-])C[C@H]1C#N (stereo in doubt; 7) | 1.25 h |  | 7.47
N#C[C@@H]1CSCN1C(=O)C(CCCCN)NC(=O)OCc1ccccc1 (stereo partly drawn) | > 48 h |  | 8.30
CCC(C)[C@H](N)C(=O)N1COC[C@H]1C#N (stereo partly drawn) | > 48 h |  | 6.35
